In brackets after ≈: the same amount, converted by molar mass. Several values for one entry are separate records, joined by “and”; a condition that tells them apart may be missing. Equal values may be shown once. Read-outs that look alike come from different tables or passages of the source.
Key:
[1] = system: Methicillin-resistant S. aureus ATCC 43300; assay: microbe, parasite or virus in culture; details: for MIC: Staphylococcus aureus
Method in brief: (§1)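 Compounds were serially diluted twofold from 8 to 0.003 µg mL^−1 in Mueller Hinton broth. Inocula came from overnight cultures diluted 40-fold and grown a further 2–3 h.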

[2] = system: Multi-drug-resistant S. pneumoniae ATCC 700677; assay: microbe, parasite or virus in culture; details: for MIC: Streptococcus pneumoniae, ATCC700677, read-out: MIC MDR S.P.
Method in brief: as §1

[3] = system: Vancomycin-resistant (VanA) Enterococcus faecium ATCC 51559; assay: microbe, parasite or virus in culture; details: for MIC: Enterococcus faecium, ATCC51559 / VRE, read-out: MIC VRE
Method in brief: as §1

[4] = system: Vancomycin-intermediate S. aureus NRS1; assay: microbe, parasite or virus in culture; details: for MIC: Staphylococcus aureus, NRS1 / VISA, read-out: MIC VISA
Method in brief: as §1

Cytotoxicity MTT assay [5] = assay type: cell-based, human; details: human
Method in brief: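 Duplicate wells were used, with viability calculated against untreated and positive-control wells. Readout was MTT reduction: 2 h with 0.4 mg mL^−1 MTT, formazan dissolved in DMSO, absorbance at 570 nm. Before that, compound was applied 24 h at 37 °C over 100–0.046 µM (threefold dilutions) to HepG2 or HEK293 cells seeded 24 h earlier in DMEM/1% FBS.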

[6] = system: Vancomycin-resistant S. aureus NARSA VRS4; assay: microbe, parasite or virus in culture; assay type: cell-based, Staphylococcus aureus; details: Staphylococcus aureus, VRSA, read-out: MIC VRSA
[7] = system: Methicillin-sensitive S. aureus ATCC 29213; assay: microbe, parasite or virus in culture; assay type: cell-based, Staphylococcus aureus; details: for MIC: Staphylococcus aureus, ATCC 29213 / MSSA
Method: Antimicrobial activity of compounds was tested against a number of bacterial strains by broth microdilution (BMD) assay with MIC determination, including S. aureus (MSSA ATCC® 29213™, MRSA ATCC® 43300™, VISA NARSA NRS1, VISA NARSA NRS4), Streptococcus pneumoniae (MDR ATCC® 700677™) and Enterococcus faecium (MDR VanA ATCC® 51559™). ATCC strains were sourced from the American Type Culture Collection and NRS strains from NARSA (Network on Antimicrobial Resistance in S. aureus) via BEI Resources (www.beiresources.org). All compounds were prepared to 160 µg mL^−1 solution in water from a stock solution of 1 mM concentration.
[…] […] Standards ranged from 64 to 0.03 µg mL^−1 and compounds from 8 to 0.003 µg mL^−1 with final assay volumes of 100 µL per well. Gram-positive bacteria were cultured in Mueller Hinton broth (MHB) (Bactolaboratories, Cat. no. 211443) at 37 °C overnight. A sample of each culture was then diluted 40-fold in fresh MHB and incubated at 37 °C for 2–3 h. The resultant mid-log phase cultures were added to the compound-containing 96-well plates to give a final cell density of 5 × 10^5 colony forming unit (CFU) mL^−1. All the plates were covered and incubated at 37 °C for 24 h. MICs were the lowest concentration showing no visible growth.

Cytotoxicity MTT assay [8] = assay type: cell-based, human; details: human; remark: listed apart in the source
[9] = polystyrene plate with 0.002% polysorbate-80
[10] = polystyrene plate, no polysorbate-80

CN[C@H](CC(C)C)C(=O)N[C@H]1C(=O)N[C@@H](CC(N)=O)C(=O)N[C@H]2C(=O)N[C@H]3C(=O)N[C@H](C(=O)N[C@H](C(=O)O)c4cc(O)cc(O)c4-c4cc3ccc4O)[C@H](O)c3ccc(c(Cl)c3)Oc3cc2cc(c3O[C@@H]2O[C@H](CO)[C@@H](O)[C@H](O)[C@H]2O[C@H]2C[C@](C)(N)[C@H](O)[C@H](C)O2)Oc2ccc(cc2Cl)[C@H]1O [Compound 1, Vancomycin]
MIC ([1]; ATCC43300|MRSA, 24 h, read-out: MIC MRSA, S. aureus ATCC 43300, NBS plates, MHB, 24 h, substance alone): 1 µg/mL (≈ 0.69 µM) | MIC ([1]; ATCC43300|MRSA, read-out: MIC S. aureus ATCC 43300 MRSA, NBS, non-binding surface plate): 1 µg/mL (≈ 0.69 µM) | MIC ([1]; ATCC43300|MRSA, read-out: MIC S. aureus ATCC 43300 MRSA, PP, polypropylene plate): 2 µg/mL (≈ 1.38 µM) | MIC ([1]; ATCC43300|MRSA, read-out: MIC S. aureus ATCC 43300 MRSA, PS+P-80, polystyrene plate with 0.002% polysorbate-80): 2 µg/mL (≈ 1.38 µM) | MIC ([1]; ATCC43300|MRSA, read-out: MIC S. aureus ATCC 43300 MRSA, PS, polystyrene plate, no polysorbate-80): 2 µg/mL (≈ 1.38 µM) | MIC [2]: 1 µg/mL (≈ 0.69 µM) | MIC [3]: > 64 µg/mL | MIC [4]: 4 µg/mL (≈ 2.76 µM) | CC50 at 24 h (Cytotoxicity MTT assay [5]; 24 h, MTT, 1% FBS, read-out: Cytotoxicity CC50 HEK293): 5.9 mM | MIC [6]: > 64 µg/mL | MIC ([7]; read-out: MIC MSSA): 1 µg/mL (≈ 0.69 µM) | MIC ([7]; read-out: MIC S. aureus ATCC29213 MSSA, NBS): 1 µg/mL (≈ 0.69 µM) | MIC ([7]; read-out: MIC S. aureus ATCC29213 MSSA, PP): 1 µg/mL (≈ 0.69 µM) | MIC ([7]; read-out: MIC S. aureus ATCC29213 MSSA, PS): 2 µg/mL (≈ 1.38 µM) | MIC ([7]; read-out: MIC S. aureus ATCC29213 MSSA, PS+P-80): 1 to 2 µg/mL (≈ 0.69 to 1.38 µM) | CC50 at 24 h (Cytotoxicity MTT assay [8]; 24 h, MTT, 1% FBS, read-out: Cytotoxicity CC50 HepG2): 6.3 mM

CN[C@H]1C(=O)N[C@@H]2Cc3ccc(cc3)Oc3cc4cc(c3O[C@@H]3O[C@H](C(=O)O)[C@@H](O)[C@H](O)[C@H]3NC(=O)CCCCCCCCC(C)C)Oc3ccc(cc3Cl)[C@@H](O)[C@@H]3NC(=O)[C@H](NC(=O)[C@@H]4NC(=O)[C@@H](NC2=O)c2cc(cc(O)c2Cl)Oc2cc1ccc2O)c1ccc(O)c(c1)-c1c(O[C@H]2O[C@H](CO)[C@@H](O)[C@H](O)[C@@H]2O)cc(O)cc1[C@@H](C(=O)NCCCN(C)C)NC3=O [Compound 3, Dalbavancin]
MIC MRSA ([1]; S. aureus ATCC 43300, NBS plates, MHB, 24 h, substance alone): 0.06 µg/mL and 0.03 µg/mL | MIC S. aureus ATCC 43300 MRSA, NBS ([1]; non-binding surface plate): ≤ 0.016 µg/mL | MIC S. aureus ATCC 43300 MRSA, PP ([1]; polypropylene plate): 0.063 µg/mL (≈ 0.0347 µM) | MIC S. aureus ATCC 43300 MRSA, PS+P-80 [1, 9]: ≤ 0.016 µg/mL | MIC S. aureus ATCC 43300 MRSA, PS [1, 10]: 0.25 µg/mL (≈ 0.138 µM) | MIC MDR S.P. ([2]; S. pneumoniae ATCC 700677): 0.09 µg/mL (≈ 0.0495 µM) | MIC VRE ([3]; E. faecium MDR VanA ATCC 51559, substance alone): >8 µg/mL | MIC VISA ([4]; S. aureus NRS1): 1 µg/mL (≈ 0.55 µM) | MIC MSSA ([7]; S. aureus ATCC 29213): ≤0.016 µg/mL | MIC S. aureus ATCC29213 MSSA, NBS ([7]; non-binding surface plate): ≤ 0.016 µg/mL | MIC S. aureus ATCC29213 MSSA, PP ([7]; polypropylene plate): 0.125 µg/mL (≈ 0.0688 µM) | MIC S. aureus ATCC29213 MSSA, PS+P-80 [7, 9]: ≤ 0.016 µg/mL | MIC S. aureus ATCC29213 MSSA, PS [7, 10]: 0.25 µg/mL (≈ 0.138 µM)

CCCCCCCCCC(=O)N[C@@H](Cc1c[nH]c2ccccc12)C(=O)N[C@H](CC(N)=O)C(=O)N[C@@H](CC(=O)O)C(=O)N[C@@H]1C(=O)NCC(=O)N[C@@H](CCCN)C(=O)N[C@@H](CC(=O)O)C(=O)N[C@H](C)C(=O)N[C@@H](CC(=O)O)C(=O)NCC(=O)N[C@H](CO)C(=O)N[C@@H]([C@H](C)CC(=O)O)C(=O)N[C@@H](CC(=O)c2ccccc2N)C(=O)O[C@@H]1C [Compound 4, Daptomycin]
MIC ([1]; ATCC43300 / MRSA, 24 h, read-out: MIC MRSA): 2 µg/mL (≈ 1.23 µM) | MIC ([1]; ATCC43300|MRSA, read-out: MIC S. aureus ATCC 43300 MRSA, NBS): 1 µg/mL (≈ 0.617 µM) | MIC ([1]; ATCC43300|MRSA, read-out: MIC S. aureus ATCC 43300 MRSA, PP): 1 µg/mL (≈ 0.617 µM) | MIC ([1]; ATCC43300|MRSA, read-out: MIC S. aureus ATCC 43300 MRSA, PS): 1 µg/mL (≈ 0.617 µM) | MIC ([1]; ATCC43300|MRSA, read-out: MIC S. aureus ATCC 43300 MRSA, PS+P-80): 1 µg/mL (≈ 0.617 µM) | MIC [2]: 2 µg/mL (≈ 1.23 µM) | MIC [3]: 16 µg/mL (≈ 9.87 µM) | MIC [4]: 12 µg/mL (≈ 7.4 µM) | CC50 at 24 h (Cytotoxicity MTT assay [5]): > 0.5 mM | MIC ([6]; S. aureus NARSA VRS4): 3 µg/mL (≈ 1.85 µM) | MIC ([7]; S. aureus ATCC 29213, read-out: MIC MSSA): 1 µg/mL (≈ 0.617 µM) | MIC ([7]; non-binding surface plate, read-out: MIC S. aureus ATCC29213 MSSA, NBS): 0.5 to 1 µg/mL (≈ 0.309 to 0.617 µM) | MIC ([7]; polypropylene plate, read-out: MIC S. aureus ATCC29213 MSSA, PP): 1 µg/mL (≈ 0.617 µM) | MIC ([7]; polystyrene plate with 0.002% polysorbate-80, read-out: MIC S. aureus ATCC29213 MSSA, PS+P-80): 1 µg/mL (≈ 0.617 µM) | MIC ([7]; polystyrene plate, no polysorbate-80, read-out: MIC S. aureus ATCC29213 MSSA, PS): 1 µg/mL (≈ 0.617 µM) | CC50 at 24 h (Cytotoxicity MTT assay [8]): > 0.5 mM

— PMC5750218, “Protein-inspired antibiotics active against vancomycin- and daptomycin-resistant bacteria” (Nature Communications, 2018)
